Measured values published in US10294243B2, “Bicyclic compounds as pesticides” (BAYER CROPSCIENCE AKTIENGESELLSCHAFT, priority 2014, dated 2019).
Like-named read-outs stand apart in the source and are kept apart here.

Experiments:
Phaedon cochleariae = Phaedon cochleariae - spray test; format: in vivo; settings: application rate 500 g/ha, Chinese cabbage leaf discs, after 7 days
Excerpt: Phaedon cochleariae—Spray Test
(§1) Emulsifier: alkylaryl polyglycol ether

Spodoptera frugiperda = settings: application rate 500 g/ha, maize leaf discs, after 7 days
Method: Spodoptera frugiperda—Spray Test
Solvent: 78.0 parts by weight of acetone • • 1.5 parts by weight of dimethylformamide
as §1
(§2) To produce further test concentrations, the preparation is diluted with emulsifier-containing water.
After 7 days, the efficacy in % is determined 100% means that all the caterpillars have been killed; 0% means that no caterpillars have been killed.

Tetranychus urticae = Tetranychus urticae - spray test, OP-resistant; format: in vivo; settings: application rate 500 g/ha, bean leaf discs, after 6 days
Method: Tetranychus urticae—Spray Test, OP-Resistant
as §1
After 6 days, the efficacy in % is determined. 100% means that all the spider mites have been killed; 0% means that none of the spider mites have been killed.

[1] = log P by HPLC on reversed-phase C18 columns (OECD Guideline 117); method [a] acidic pH 2.7, method [b] neutral pH 7.8; format: physicochemical; settings: for chromatographic logP: reversed-phase C18 HPLC column
Myzus persicae [2] = test: Myzus persicae - spray test (Chinese cabbage leaf discs); format: in vivo; settings: after 6 days; for pest or weed control at 500 g/ha: Myzus persicae, foliar, 144 h, read-out: efficacy (aphids killed)
Method: Myzus persicae—Spray Test
Solvent: 78 parts by weight of acetone • • 1.5 parts by weight of dimethylformamide
as §1, §2
After 6 days, the efficacy in % is determined 100% means that all the aphids have been killed; 0% means that none of the aphids have been killed.

Myzus persicae [3] = test: Myzus persicae - spray test (bell pepper plants); format: in vivo; settings: application rate 4 ppm, after 6 days
Method: Myzus persicae—Spray Test Solvent: 7 parts by weight of dimethylformamide Emulsifier: alkylaryl polyglycol ether […] […] If the addition of ammonium salts or/and penetrants is required, these are each added in a concentration of 1000 ppm to the preparation solution. Bell pepper plants (Capsicum annuum) severely infested with the green peach aphid (Myzus persicae) are treated by spraying with the active compound preparation in the desired concentration.

Boophilus microplus = Boophilus microplus - injection test; format: in vivo; settings: application rate 20 μg/animal, injection into engorged adult female cattle ticks, assessed after 7 days
Method: Boophilus microplus—Injection Test
Solvent: dimethyl sulphoxide
To produce a suitable preparation of active compound, 10 mg of active compound are mixed with 0.5 ml of solvent and the concentrate is diluted with solvent to the desired concentration.
1 μl of the active compound solution is injected into the abdomen of 5 engorged adult female cattle ticks (Boophilus microplus). The animals are transferred into dishes and kept in a climate-controlled room.
Efficacy is assessed after 7 days by laying of fertile eggs. Eggs which are not visibly fertile are stored in a climate-controlled cabinet until the larvae hatch after about 42 days. An efficacy of 100% means that none of the ticks has laid any fertile eggs; 0% means that all the eggs are fertile.

[4] = HPLC reversed-phase C18, method [a] acidic pH 2.7
[5] = HPLC reversed-phase C18, method [b] neutral pH 7.8
[6] = HPLC reversed-phase C18, method [a] acidic pH 2.7, read-out: logP[a]
[7] = HPLC reversed-phase C18, method [b] neutral pH 7.8, read-out: logP[b]

Structure (SMILES)	logP[a] [1, 4]	logP[b] [1, 5]	efficacy (aphids killed) (Myzus persicae [2]; application rate 500 g/ha)	also measured
Cc1ccc(-n2cnc3nc(-c4cccnc4)sc3c2=O)cc1 [Compound 11]	1.92	1.96	–	efficacy (beetle larvae killed) (Phaedon cochleariae): 100%; efficacy (caterpillars killed) (Spodoptera frugiperda): 100%; efficacy (spider mites killed) (Tetranychus urticae): 90%
O=c1c2sc(-c3cccnc3)nc2ncn1-c1ccc(SC(F)(F)F)cc1 [Compound 62, 2-(Pyridin-3-yl)-6-{4-[(trifluoromethyl)sulphanyl]phenyl}[1,3]thiazolo[4,5-d]pyrimidin-7(6H)-one]	–	–	–	pest or weed control at 500 g/ha (Myzus persicae [2]; application rate 500 g/ha): 90%; efficacy (beetle larvae killed) (Phaedon cochleariae): 100%; chromatographic logP [1, 6]: 2.71; chromatographic logP [1, 7]: 2.69
O=c1c2sc(-c3cccnc3)nc2ncn1-c1cc(SCC2CC2)ccc1F [Compound 44]	2.91	3.00	–	efficacy (kill of aphids) (Myzus persicae [3]): 100%
COc1cccc(-n2cnc3nc(-c4cccnc4)sc3c2=O)c1 [Compound 10, 6-(3-Methoxyphenyl)-2-(pyridin-3-yl)[1,3]thiazolo[4,5-d]pyrimidin-7(6H)-one]	–	–	–	efficacy (kill of aphids) (Myzus persicae [3]): 96%; chromatographic logP [1, 6]: 1.73; chromatographic logP [1, 7]: 1.76
Cc1cc(F)c(-n2c(C)nc3nc(-c4cccnc4)sc3c2=O)cc1[S+]([O-])CC(F)(F)F (stereo not shown) [Compound 57, 6-{2-Fluoro-4-methyl-5-[(2,2,2-trifluoroethyl)sulphinyl]phenyl}-5-methyl-2-(pyridin-3-yl)[1,3]thiazolo[4,5-d]pyrimidin-7(6H)-one]	–	–	–	efficacy (laying of fertile eggs) (Boophilus microplus): 100%; pest or weed control at 500 g/ha (Myzus persicae [2]; application rate 500 g/ha): 100%; efficacy (spider mites killed) (Tetranychus urticae): 90%; chromatographic logP [1, 6]: 2.25; chromatographic logP [1, 7]: 2.05
Cn1ccc(Cn2cnc3nc(-c4cccnc4)sc3c2=O)n1 [Compound 37]	0.97	1.08	90%	efficacy (beetle larvae killed) (Phaedon cochleariae): 100%; efficacy (caterpillars killed) (Spodoptera frugiperda): 100%
Cc1cc(F)c(-n2nnc3nc(-c4cccnc4)sc3c2=O)cc1[S+]([O-])CC(F)(F)F (stereo not shown) [Compound 59, 3-{2-Fluoro-4-methyl-5-[(2,2,2-trifluoroethyl)sulphinyl]phenyl}-6-(pyridin-3-yl)[1,3]thiazolo[4,5-d][1,2,3]triazin-4(3H)-one]	–	–	–	pest or weed control at 500 g/ha (Myzus persicae [2]; application rate 500 g/ha): 90%; chromatographic logP [1, 6]: 2.4; chromatographic logP [1, 7]: 2.35
Cc1cc(C)c(-n2cnc3nc(-c4cncc(F)c4)sc3c2=O)cc1SCC(F)(F)F [Compound 71]	3.64	3.34	90%	–
CC[S+]([O-])c1cccc(-n2cnc3nc(-c4cccnc4)sc3c2=O)c1 (stereo not shown) [Compound 20]	1.24	1.26	100%	–
O=c1c2sc(-c3cccnc3)nc2ncn1-c1ccc(F)c([S+]([O-])C(F)(F)F)c1 (stereo not shown) [Compound 18]	2.01	1.95	90%	–
Cc1cc(F)c(-n2cnc3nc(-c4cncnc4)sc3c2=O)cc1SCC(F)(F)F [Compound 78]	2.73	2.65	90%	–
Cc1cc(C)c(-n2cnc3nc(-c4cccnc4)sc3c2=O)cc1SCC(F)(F)F [Compound 49, 6-{2,4-Dimethyl-5-[(2,2,2-trifluoroethyl)sulphanyl]phenyl}-2-(pyridin-3-yl)[1,3]thiazolo[4,5-d]pyrimidin-7(6H)-one]	–	–	–	pest or weed control at 500 g/ha (Myzus persicae [2]; application rate 500 g/ha): 100%; chromatographic logP [1, 6]: 3.04; chromatographic logP [1, 7]: 2.98
CN(C)C(=O)CSc1cccc(-n2cnc3nc(-c4cccnc4)sc3c2=O)c1 [Compound 52]	1.57	1.55	90%	–
O=c1c2sc(-c3cccnc3)nc2ncn1Cc1cccnc1 [Compound 35]	–	0.72	100%	–
O=c1c2sc(-c3cccnc3)nc2ncn1-c1ccc(F)c(SC(F)(F)F)c1 [Compound 17]	2.70	2.66	90%	–
Cc1cc(F)c(-n2cnc3nc(-c4cncc(F)c4)sc3c2=O)cc1[S+]([O-])CC(F)(F)F (stereo not shown) [Compound 74, 6-{2-Fluoro-4-methyl-5-[(2,2,2-trifluoroethyl)sulphinyl]phenyl}-2-(5-fluoropyridin-3-yl)[1,3]thiazolo[4,5-d]pyrimidin-7(6H)-one]	–	–	–	pest or weed control at 500 g/ha (Myzus persicae [2]; application rate 500 g/ha): 90%; chromatographic logP [1, 6]: 2.34; chromatographic logP [1, 7]: 2.26
CCSc1cccc(-n2cnc3nc(-c4cccnc4)sc3c2=O)c1 [Compound 19]	2.39	2.43	–	efficacy (aphids killed) (Myzus persicae [2]; application rate 100 g/ha): 90%

Structure (SMILES)	logP[a] [1, 4]	logP[b] [1, 5]	efficacy (aphids killed) (Myzus persicae [2]; application rate 500 g/ha)	also measured
O=c1c2sc(-c3cccnc3)nc2ncn1-c1cc(SCC(F)(F)F)ccc1F [Compound 46]	2.60	2.56	90%	–
Cc1cc(F)c(-n2cnc3nc(-c4cccnc4)sc3c2=O)cc1[S+]([O-])CC(=O)N(C)C (stereo not shown) [Compound 55, 2-({4-Fluoro-2-methyl-5-[7-oxo-2-(pyridin-3-yl)[1,3]thiazolo[4,5-d]pyrimidin-6(7H)-yl]phenyl}sulphinyl)-N,N-dimethylacetamide]	–	–	–	pest or weed control at 500 g/ha (Myzus persicae [2]; application rate 500 g/ha): 90%; chromatographic logP [1, 6]: 1.38; chromatographic logP [1, 7]: 1.38
Cc1ccc(-n2cnc3nc(-c4cccnc4)sc3c2=O)cc1SCC(F)(F)F [Compound 47]	2.73	2.75	90%	–
O=c1c2sc(-c3cccnc3)nc2ncn1-c1cccc(C(F)(F)F)c1 [Compound 9]	2.26	2.23	100%	–
CC(C)C[S+]([O-])c1cccc(-n2cnc3nc(-c4cccnc4)sc3c2=O)c1 (stereo not shown) [Compound 27]	1.73	1.68	90%	–
COc1ccc(-n2cnc3nc(-c4cccnc4)sc3c2=O)cc1 [Compound 12]	1.73	1.76	90%	–
CC(C)[S+]([O-])c1cccc(-n2cnc3nc(-c4cccnc4)sc3c2=O)c1 (stereo not shown) [Compound 25]	1.39	1.43	90%	–
Cc1cc(C)c([S+]([O-])CC(F)(F)F)cc1-n1cnc2nc(-c3cncnc3)sc2c1=O (stereo not shown) [Compound 77, 6-{2,4-Dimethyl-5-[(2,2,2-trifluoroethyl)sulphinyl]phenyl}-2-(pyrimidin-5-yl)[1,3]thiazolo[4,5-d]pyrimidin-7(6H)-one]	–	–	–	pest or weed control at 500 g/ha (Myzus persicae [2]; application rate 500 g/ha): 100%; chromatographic logP [1, 6]: 1.84; chromatographic logP [1, 7]: 1.82
CCSc1ccc(-n2cnc3nc(-c4cccnc4)sc3c2=O)cc1 [Compound 60]	2.41	2.45	100%	–
CC[S+]([O-])c1ccc(-n2cnc3nc(-c4cccnc4)sc3c2=O)cc1 (stereo not shown) [Compound 61]	1.10	1.22	100%	–
CC(C)Sc1cccc(-n2cnc3nc(-c4cccnc4)sc3c2=O)c1 [Compound 24]	2.76	2.70	90%	–
O=c1c2sc(-c3cccnc3)nc2ncn1Cc1ccccn1 [Compound 34, 2-(Pyridin-3-yl)-6-(pyridin-2-ylmethyl)[1,3]thiazolo[4,5-d]pyrimidin-7(6H)-one]	–	–	–	pest or weed control at 500 g/ha (Myzus persicae [2]; application rate 500 g/ha): 100%; chromatographic logP [1, 6]: 1.09
O=c1c2sc(-c3cccnc3)nc2ncn1-c1ccccc1F [Compound 40]	1.70	1.69	100%	–
Cc1cc(C)c([S+]([O-])CC(F)(F)F)cc1-n1cnc2nc(-c3cncc(F)c3)sc2c1=O (stereo not shown) [Compound 72]	2.35	2.29	90%	–
O=c1c2sc(-c3cccnc3)nc2ncn1-c1cc(SCC(F)(F)F)c(Cl)cc1Cl [Compound 51]	3.25	3.17	100%	–
Cc1cc(SC(F)(F)F)ccc1-n1cnc2nc(-c3cccnc3)sc2c1=O [Compound 64]	2.91	2.89	100%	–
O=c1c2sc(-c3cccnc3)nc2ncn1CC(F)(F)C(F)F [Compound 6]	1.57	–	90%	–
